Structures can show the parent of a compound that is named as a salt.

In one experiment the test system is RSV (Group A, Long Strain). Kind of experiment: Cytopathetic effect (CPE) protection antiviral assay, MTT readout. The experiment is classed as cell-based. Particulars: human respiratory syncytial virus, HEp-2, 96 h, HEp-2 cells, 0.2 MOI RSV, 4 days incubation, protection from CPE (Table 1); read-out: RSV EC50. As to the method:
HEp-2 cells and RSV (Group A, Long Strain) were obtained from the American Type Culture Collection (Manassas, Va.).
A cytopathetic effect (CPE) protection assay was performed to determine the ability of a compound to protect the cells from viral infection and thus the CPE induced by viral infection. 96-Well plates were first seeded with […] per well in Dulbecco's modified Eagle's medium (DMEM) containing 10% fetal bovine serum (FBS). One day after the cells were seeded, they were preincubated with serial dilutions of compounds prepared in 100 μL assay medium (DMEM mixed with F12 medium at a 1:1 ratio, supplemented with 2% FBS and 1 mM sodium pyruvate) for 1 hour at 37° C. 100 μL of assay medium containing 0.2 multiplicity of infection (MOI) of RSV was then added to each well of cells. In addition to wells containing infected cells incubated with compounds, each plate also contained replicates of two kinds of controls: (1) Virus control contained cells infected with 0.2 MOI of RSV in assay medium, (2) Uninfected cell control contained cells incubated with assay medium only. After 4 days of incubation at 37° C., the viability of cells was assessed using MTT (Thiazolyl blue tetrazolium bromide, Sigma). A stock solution of MTT, at a concentration of 4 mg/mL in phosphate-buffered saline, was added to all wells at 25 μL per well. Plates were further incubated for 4 hours, and each well was then treated with 50 μL of a solution containing 20% sodium dodecyl sulfate (SDS) and 0.02 N HCl. After an overnight incubation, the plates were measured on a BioTek® microtiter plate reader at wavelengths of 570 nm and 650 nm. The MTT detection is based on the fact that viable (uninfected) cells can reduce the tetrazolium salts into colored formazan products, which can then be quantitated by spectrometry. Based on the spectrometric absorbance of each sample, the percent of protection from CPE, which is an indicator of protection from viral infection, can be calculated for each compound and the 50% effective concentrations (EC50) can be calculated using a nonlinear regression curve fitting equation provided by the GraphPad Prism® 4 software.
Compounds were tested to determine both their antiviral and toxicity to determine their therapeutic window. Determination of the EC50 and TD50 of these active compounds were repeated one additional time to confirm the window.
What is called EC50 is the midpoint of the concentration-response curve. Take `Cc1ccccc1NC(=NC#N)N1CCN(c2cncc(N3CCOCC3)n2)CC1C(C)C` (stereo not drawn) [Example 1.63, N′-cyano-2-isopropyl-N-(2-methylphenyl)-4-[6-(morpholin-4-yl)pyrazin-2-yl]piperazine-1-carboximidamide]: the EC50 is above 10 µM.

Take `Cc1ccccc1NC(=NC#N)N1CCN(c2cnc3ccccc3n2)C(C(C)C)C1` (stereo not drawn) [Example 1.70, N′-cyano-3-isopropyl-N-(2-methylphenyl)-4-(quinoxalin-2-yl)piperazine-1-carboximidamide]: the concentration giving a half-maximal response (EC50) is above 10 µM.

`Cc1ccccc1NC(=NC#N)N1CCN(c2cnc3cc(F)ccc3n2)C[C@@H]1C(C)C` [Example 1.67, (2S)—N′-cyano-4-(6-fluoroquinoxalin-2-yl)-2-isopropyl-N-(2-methylphenyl)piperazine-1-carboximidamide]: the EC50 amounted to 0.36 µM.

Consider `CC(C)C1CN(c2cnc3ccccc3n2)CCN1/C(=N\C#N)Nc1ccc(F)cc1` (stereo not drawn) [Example 1.23, N′-cyano-N-(4-fluorophenyl)-2-isopropyl-4-(quinoxalin-2-yl)piperazine-1-carboximidamide], for which the EC50 was above 10 µM.

Consider `Cc1ccccc1N/C(=N/C#N)N1CCN(c2cnc3ccccc3n2)CC12CC2` [Example 1.45, N′-cyano-N-(2-methylphenyl)-7-(quinoxalin-2-yl)-4,7-diazaspiro[2.5]octane-4-carboximidamide], for which the EC50 is above 10 µM.

`Cc1ccccc1NC(=NC#N)N1CCN(c2nc3ccccc3n2C)CC1C(C)C` (stereo not drawn) [Example 1.69, N′-cyano-2-isopropyl-4-(1-methyl-1H-benzimidazol-2-yl)-N-(2-methylphenyl)piperazine-1-carboximidamide]: the EC50 is 2.99 µM.

On to `Cc1cc(F)ccc1N/C(=N/C#N)N1CCN(c2cnc3ccccc3n2)CC1C(C)C` (stereo not drawn) [Example 1.32, N′-cyano-N-(4-fluoro-2-methylphenyl)-2-isopropyl-4-(quinoxalin-2-yl)piperazine-1-carboximidamide], for which the EC50 is above 10 µM.

As to `Cc1cc(F)c(F)cc1N/C(=N/C#N)N1CCN(c2cnc3ccccc3n2)CC1C(C)C` (stereo not drawn) [Example 1.34, N′-cyano-N-(4,5-difluoro-2-methylphenyl)-2-isopropyl-4-(quinoxalin-2-yl)piperazine-1-carboximidamide], the concentration giving a half-maximal response (EC50) is above 3.1 µM.

Consider `Cc1ccccc1N/C(=N/C#N)N1CCN(c2nc3ccccc3nc2C)CC1C(C)C` (stereo not drawn) [Example 1.52, N′-cyano-2-isopropyl-N-(2-methylphenyl)-4-(3-methylquinoxalin-2-yl)piperazine-1-carboximidamide], for which the EC50 is above 10 µM.

Regarding `CC(C)C1CN(c2cnc3ccccc3n2)CCN1/C(=N\C#N)Nc1ccc(F)cc1Cl` (stereo not drawn) [Example 1.30, N-(2-chloro-4-fluorophenyl)-N′-cyano-2-isopropyl-4-(quinoxalin-2-yl)piperazine-1-carboximidamide], the EC50 was above 10 µM.

For the molecule `Cc1c(F)cccc1N/C(=N/C#N)N1CCN(c2cnc3ccccc3n2)CC1C(C)C` (stereo not drawn) [Example 1.29, N′-cyano-N-(3-fluoro-2-methylphenyl)-2-isopropyl-4-(quinoxalin-2-yl)piperazine-1-carboximidamide], the EC50 was above 3.16 µM.

`CC(C)C1CN(c2cnc3ccccc3n2)CCN1/C(=N\C#N)Nc1ccccc1F` (stereo not drawn) [Example 1.21, N′-cyano-N-(2-fluorophenyl)-2-isopropyl-4-(quinoxalin-2-yl)piperazine-1-carboximidamide]: the EC50 turned out to be 2.07 µM.

On to `Cc1ccccc1NC(=NC#N)N1CCN(c2ccc3nccnc3n2)CC1C(C)C` (stereo not drawn) [Example 1.65, N′-cyano-2-isopropyl-N-(2-methylphenyl)-4-(pyrido[2,3-b]pyrazin-6-yl)piperazine-1-carboximidamide], for which the EC50 turned out to be 5.9 µM.

Consider `Cc1ccccc1N/C(=N/C#N)N1CCN(c2cnc3ccc(F)cc3n2)CC1C(C)C` (stereo not drawn) [Example 1.60, N′-cyano-4-(7-fluoroquinoxalin-2-yl)-2-isopropyl-N-(2-methylphenyl)piperazine-1-carboximidamide], for which the EC50 was 1.05 µM.

With `CC(C)C1CN(c2cnc3ccccc3n2)CCN1/C(=N\C#N)Nc1ccc2c(c1)OCO2` (stereo not drawn) [Example 1.14, N-(1,3-benzodioxol-5-yl)-N′-cyano-2-isopropyl-4-(quinoxalin-2-yl)piperazine-1-carboximidamide], the EC50 is above 10 µM.

On to `CC(C)CC1CN(c2cnc3ccccc3n2)CCN1/C(=N\C#N)Nc1cccc(F)c1` (stereo not drawn) [Example 1.40, N′-cyano-N-(3-fluorophenyl)-2-isobutyl-4-(quinoxalin-2-yl)piperazine-1-carboximidamide], for which the EC50 is above 10 µM.

Turning to `CCC(C)C1CN(c2cnc3ccccc3n2)CCN1/C(=N\C#N)Nc1ccccc1C` (stereo not drawn) [Example 1.47, 2-sec-butyl-N′-cyano-N-(2-methylphenyl)-4-(quinoxalin-2-yl)piperazine-1-carboximidamide], the EC50 is above 1.38 µM.

In the case of `CC(C)CC1CN(c2cnc3ccccc3n2)CCN1/C(=N\C#N)Nc1ccccc1F` (stereo not drawn) [Example 1.39, N′-cyano-N-(2-fluorophenyl)-2-isobutyl-4-(quinoxalin-2-yl)piperazine-1-carboximidamide], the EC50 is above 10 µM.

Consider `Cc1ccncc1NC(=NC#N)N1CCN(c2cnc3ccccc3n2)CC1C(C)C` (stereo not drawn) [Example 1.72, N′-cyano-2-isopropyl-N-(4-methylpyridin-3-yl)-4-(quinoxalin-2-yl)piperazine-1-carboximidamide], for which the concentration giving a half-maximal response (EC50) is above 5.37 µM.

As to `Cc1ccccc1N/C(=N/C#N)N1CCN(c2cnc3ccccc3n2)CC1CC(C)C` (stereo not drawn) [Example 1.37, N′-cyano-2-isobutyl-N-(2-methylphenyl)-4-(quinoxalin-2-yl)piperazine-1-carboximidamide], the 50% effective concentration (EC50) worked out at 0.4 µM.

`Cc1ccccc1N/C(=N/C#N)N1CCN(c2cnc3cc(F)c(F)cc3n2)CC1C(C)C` (stereo not drawn) [Example 1.51, N′-cyano-4-(6,7-difluoroquinoxalin-2-yl)-2-isopropyl-N-(2-methylphenyl)piperazine-1-carboximidamide]: the EC50 is 0.69 µM.

Regarding `Cc1ccc(N/C(=N/C#N)N2CCN(c3cnc4ccccc4n3)CC2C(C)C)cc1` (stereo not drawn) [Example 1.16, N′-cyano-2-isopropyl-N-(4-methylphenyl)-4-(quinoxalin-2-yl)piperazine-1-carboximidamide], the EC50 is above 10 µM.

On to `Cc1cccc(C)c1N/C(=N/C#N)N1CCN(c2cnc3ccccc3n2)CC1C(C)C` (stereo not drawn) [Example 1.17, N′-cyano-N-(2,6-dimethylphenyl)-2-isopropyl-4-(quinoxalin-2-yl)piperazine-1-carboximidamide], for which the EC50 was found to be 0.54 µM.

As to `Cc1ccc(F)cc1N/C(=N/C#N)N1CCN(c2cnc3ccccc3n2)CC1C(C)C` (stereo not drawn) [Example 1.31, N′-cyano-N-(5-fluoro-2-methylphenyl)-2-isopropyl-4-(quinoxalin-2-yl)piperazine-1-carboximidamide], the EC50 was 2 µM.

Take `CC(C)c1ccccc1N/C(=N/C#N)N1CCN(c2cnc3ccccc3n2)CC1C(C)C` (stereo not drawn) [Example 1.26, N′-cyano-2-isopropyl-N-(2-isopropylphenyl)-4-(quinoxalin-2-yl)piperazine-1-carboximidamide]: the EC50 was above 10 µM.

As for `Cc1ccccc1N/C(=N/C#N)N1CCN(c2cnc3ccccc3n2)CC12CCC2` [Example 1.43, N′-cyano-N-(2-methylphenyl)-8-(quinoxalin-2-yl)-5,8-diazaspiro[3.5]nonane-5-carboximidamide], the EC50 was above 10 µM.

For the molecule `Cc1ncccc1N/C(=N/C#N)N1CCN(c2cnc3ccccc3n2)CC1C(C)C` (stereo not drawn) [Example 1.73, N′-cyano-2-isopropyl-N-(2-methylpyridin-3-yl)-4-(quinoxalin-2-yl)piperazine-1-carboximidamide], the EC50 is above 10 µM.

Turning to `CC(C)C1CN(c2cnc3ccccc3n2)CCN1/C(=N\C#N)Nc1ccc(C(F)(F)F)cc1` (stereo not drawn) [Example 1.24, N′-cyano-2-isopropyl-4-(quinoxalin-2-yl)-N-[4-(trifluoromethyl)phenyl]piperazine-1-carboximidamide], the EC50 is above 6.68 µM.

In the case of `Cc1cccc(N/C(=N/C#N)N2CCN(c3cnc4ccccc4n3)CC2C(C)C)c1` (stereo not drawn) [Example 1.22, N′-cyano-2-isopropyl-N-(3-methylphenyl)-4-(quinoxalin-2-yl)piperazine-1-carboximidamide], the half-maximal effective concentration (EC50) worked out at 0.4 µM.

Staying with this experiment, now noted: human respiratory syncytial virus, HEp-2, 96 h, read-out: RSV EC50.
Turning to `Cc1ccccc1N/C(=N/C#N)N1CCN(c2cnc3ccccc3n2)C[C@H]1C(C)C` [Example 1.12, (2R)—N′-cyano-2-isopropyl-N-(2-methylphenyl)-4-(quinoxalin-2-yl)piperazine-1-carboximidamide trifluoroacetate], the EC50 was above 32 µM.
